Source: paper PMC4627311, “Marine alkaloid Monanchocidin a overcomes drug resistance by induction of autophagy and lysosomal membrane permeabilization” (Oncotarget, 2015)
Like-named read-outs stand apart in the source and are kept apart here.

How the values were obtained:
NCCIT-R cells [1] = assay: Drug combination MTT assay, Chou-Talalay method (CI)
Protocol: (§6) F, Effect of MonA in combination with cisplatin on NCCIT-R cells, examined by the MTT assay. Cells were co-treated with different concentrations of the single substances or their combination for 48 h at a constant molar ratio. The combinational index (CI) values were calculated with CompuSyn software. The ratio of the substances is C(MonA) : C(cisplatin) = 1.2 : 10.
(§7) Co-treatment of MonA and the indicated inhibitors for 48 h was performed. The combinational index (CI) values were calculated with the CompuSyn software for the Fa (fraction affected) = 0.5.
(§8) Determination of synergistic or antagonistic drug effects in combination assays was performed using the Chou-Talalay method [20]. Data were generated by MTT assay. The combinational index (CI) was calculated for the constant drugs ratio with the CompuSyn v.1.0. software (ComboSyn, Inc., Paramus, NJ, USA). Synergism is defined as a CI < 1, whereas antagonism is defined by a CI > 1. The MTT assay was used to examine the combination of MonA at the IC50 with defined inhibitors of autophagy or LMP, or with the IC50 of cisplatin. […] All experiments were performed in triplicates and were repeated at least three times.
MonA : z-VAD-fmk 1.2 µM : 100 µM
MonA : calpeptine 1.2 µM : 50 µM
MonA : leupeptine 1.2 µM : 100 µM
(§9) MonA : protease inhibitors cocktail 1.2 µM : 0.02 tablet/ml
(cOmplete Mini EDTA-free)

RT112 = assay: MTT cytotoxicity assay, RT112; assay type: cell-based, human; details: 72 h
Description: (§1) The human prostate cancer cell lines PC3 (docetaxel resistant, androgen-independent), DU145 (docetaxel sensitive, androgen-independent), LNCaP (docetaxel sensitive, androgen-dependent), human bladder cancer cell lines RT112, RT4, 486p, T24, human embryonic kidney cell line HEK 293T, human embilical vascular endothelium cell line HUVEC, as well as human fibroblast cell lines MRC-5 and MRC-9 were obtained from ATCC (Manassas, VA, USA). The human germ cell tumor cancer cell line NCCIT was obtained from DSMZ (Braunschweig, Germany). TCam-2 and 2102EP cells were kindly provided by Prof. L. Looijenga (Rotterdam, The Netherlands). The cisplatin-resistant sublines NCCIT-R and 2102EP-R have been generated as reported before. Cells were cultured according to the manufacturers instructions (culture conditions are described in the supplementary). Cells were continuously kept in culture for a maximum of 3 months, and were routinely inspected microscopically for stable phenotype and regularly checked for contamination with mycoplasma. Cell line authentication was performed by DSMZ (Braunschweig, Germany) using highly polymorphic short tandem repeat loci.
(§2) The in vitro cytotoxicity of individual substances and drug combinations was evaluated using the MTT (3-(4,5-dimethylthiazol-2-yl)-2,5-diphenyltetrazolium bromide) assay, which was performed as previously described.

T24 = assay: MTT cytotoxicity assay, T24; assay type: cell-based, human; details: 72 h
Description: as §1, §2

TCam-2 = assay: MTT cytotoxicity assay, TCam-2; assay type: cell-based, human; details: TCam-2, cisplatin-sensitive GCT, 72 h
Description: as §1, §2

NCCIT = assay: MTT cytotoxicity assay, NCCIT; assay type: cell-based, human; details: cisplatin-sensitive GCT, 72 h
Description: as §1, §2

2102EP-R = assay: MTT cytotoxicity assay, 2102EP-R; assay type: cell-based, human; details: cisplatin-resistant GCT, 72 h
Description: as §1, §2

NCCIT-R cells [2] = assay: Western blotting / PAGE of protein extracts; assay type: cell-based, human; details: for Expression of LC3B-II (marker of autophagy): MonA 0.25 – 2 μM long-term or 20 – 50 μM short-term, reference drugs 48 h
Protocol: (§3) Figure 3 Effect of MonA on activation of MAPK and protein degradation A, NCCIT-R cells were analyzed after treatment with MonA for 1 h by Western blotting. Cells treated with 50 μM of anisomycin for 1 h (Aniso) were used as a positive control for MAPK activation. […] C, Analysis of NCCIT-R cells treated with 1 μM of MonA for 1 h. […] Two samples of the spot were randomly picked from the area between ~5 kDa and ~1 kDa, followed by trypsination and identification of peptides by tandem mass spectrometry. D, Analysis of NCCIT-R cells treated with 20 μM of MonA for 1-3 h. Cleavage of PARP and caspase-3 were investigated as hallmarks of apoptosis. Cells treated with 10 μM of cisplatin (CP) for 48 h were used for comparison of the effects of a classical cytotoxic agent. E, Analysis of non-malignant HEK 293T cells treated with 0.0625 – 1 μM of MonA for 48 h.
Figure 5 Effect of cytotoxic compounds on NCCIT-R cells A, NCCIT-R cells were treated with docetaxel, anisomycin, or cisplatin for 48 h. The effect on markers of apoptosis (cleavage of PARP and caspase-3) and autophagy (LC3B-II) were analyzed using Western blotting. While all show induction of apoptosis, expression of LC3B-II is not increased after treatment with these substances. B, Microphotographs of NCCIT-R cells treated with cisplatin or MonA for 48 h show morphological changes induced by the substances. The pictures were made at x100 magnification. Each bar represents 50 μm.
(§4) Preparation of protein extracts and Western blotting were performed as described previously with slight modifications. In brief, 1 × 10^6 cells/well were seeded in Petri dishes (ø 6 cm, 5 mL/dish). Cells were harvested, proteins were extracted, subjected to electrophoresis in 10-15% SDS-polyacrylamide gels at 120 V, and transferred from gel to a 0.2 μm pore PVDF membrane. The membrane was blocked and incubated with the primary antibody according to the manufacturer's protocol (for antibodies used, see the supplementary). After washing, the membranes were incubated with the corresponding secondary antibody for 1 h at RT. Signals were detected using the ECL chemiluminescence system (Thermo Scientific, Rockford, IL, USA) according to the manufacturer's protocol.
SDS-polyacrylamide gels were prepared as described above. Dye-free loading buffer was used for the protein samples preparation. Gels were fixed and stained with colloidal Coomassie Blue overnight, destained, and digitalized as previously described.

NCCIT-R = assay: MTT cytotoxicity assay, NCCIT-R; assay type: cell-based, human
Description: as §1, §2

2102EP = assay: MTT cytotoxicity assay, 2102EP; assay type: cell-based, human; details: cisplatin-sensitive GCT, 72 h
Description: as §1, §2

RT4 = assay: MTT cytotoxicity assay, RT4; assay type: cell-based, human; details: 72 h
Description: as §1, §2

486p = assay: MTT cytotoxicity assay, 486p; assay type: cell-based, human; details: bladder cancer, 72 h
Description: as §1, §2

prostate cancer cells = assay: Western blotting of LC3B-II in prostate cancer cells; assay type: cell-based, human; details: 48 h
Protocol: as §4

PC3 = assay: MTT cytotoxicity assay, PC3; assay type: cell-based; details: Homo sapiens, PC-3, PC3, prostate cancer, 72 h
Description: as §1, §2

THP-1 = test system: THP-1; set-up: method as in PMID 20804151; details: cited from earlier work
HL-60 = test system: HL-60; set-up: method as in PMID 20804151; details: cited from earlier work
HeLa = test system: HeLa; set-up: method as in PMID 20804151; details: cited from earlier work
HEK 293T = assay: MTT cytotoxicity assay, HEK 293T; assay type: cell-based; details: Homo sapiens, non-malignant, 72 h
Description: as §1, §2

NCCIT-R cells [3] = assay: Acridine orange staining of lysosomes (LMP); assay type: cell-based, human
Protocol: (§5) Intact lysosomes were observed as organelles emitting red fluorescence (indicated by arrows). Red fluorescence was quantified using Image J software and is graphically depicted by column bars. B, Cells were treated with MonA for 48 h, and immobilized on glass plates. Samples were permeabilized, blocked, labeled with a primary anti-cathepsin B antibody, followed by a secondary Alexa Fluor 488-conjugated antibody labeling, and analyzed using fluorescent microscopy. […] The microphotographs (A, B) were made at x400 and x100 magnifications. Each bar represents 50 μm.
NCCIT-R cells were pre-incubated overnight in 8-chamber glass slides (5 × 10^4 cells/chamber). The medium was changed with medium containing different concentrations of the substances examined, and cells were treated for 60 min. Then cells were washed twice with PBS solution, stained with 0.5 μg/mL of acridine orange/PBS for 15 min at 37°C, covered with DAPI-based ProLong® Gold reagent (Life Technologies, Eugene, OR, USA), and immediately analyzed with AxioScope.A1 (Carl Zeiss) microscope and with the AxioVision40 V4.8 software (Carl Zeiss Imaging Solutions, Göttingen, Germany). Red fluorescence measurements and quantification were performed with Image J software (NIH, Bethesda, USA).

HUVEC = assay: MTT cytotoxicity assay, HUVEC; assay type: cell-based; details: Homo sapiens, non-malignant, 72 h
Description: as §1, §2

MRC-5 = assay: MTT cytotoxicity assay, MRC-5; assay type: cell-based; details: Homo sapiens, MRC5, MRC-5, non-malignant, 72 h
Description: as §1, §2

MRC-9 = assay: MTT cytotoxicity assay, MRC-9; assay type: cell-based; details: Homo sapiens, MRC9, MRC-9, non-malignant, 72 h
Description: as §1, §2

DU145 = assay: MTT cytotoxicity assay, DU145; assay type: cell-based; details: Homo sapiens, DU-145, DU145, prostate cancer, 72 h
Description: as §1, §2

HEK 293T cells = assay: Western blotting / PAGE, protein degradation in non-malignant cells; assay type: cell-based, human; details: non-malignant HEK 293T, 0.0625 – 1 μM, 48 h
Protocol: as §3
Preparation of protein extracts and Western blotting were performed as described previously with slight modifications. In brief, 1 × 10^6 cells/well were seeded in Petri dishes (ø 6 cm, 5 mL/dish). Cells were harvested, proteins were extracted, subjected to electrophoresis in 10-15% SDS-polyacrylamide gels at 120 V, and transferred from gel to a 0.2 μm pore PVDF membrane. […] Signals were detected using the ECL chemiluminescence system (Thermo Scientific, Rockford, IL, USA) according to the manufacturer's protocol. […]

LNCaP = assay: MTT cytotoxicity assay, LNCaP; assay type: cell-based; details: Homo sapiens, prostate cancer, 72 h
Description: as §1, §2

NCCIT-R cells [4] = assay: Detection of cathepsin B release; assay type: cell-based, human; details: 48 h
Protocol: as §5
To assess release of cathepsin B into the extracellular space, NCCIT-R cells were pre-incubated overnight in 6-well plates (2 × 10^5 cells/well), and were then treated with MonA for 48 h. After trypsination, cells were immobilized on glass slides using the cytospin method and dried overnight. Cells were fixed with 2% (w/v) PFA/PBS, washed with PBS and permeabilized with 0.1% (v/v) Triton X-100 solution in 2% (v/v) normal goat serum/PBS for 30 min. […] Then, samples were washed with PBS, covered with DAPI-based ProLong® Gold reagent (Life Technologies) and directly analyzed with AxioScope.A1 (Carl Zeiss) microscope and with the AxioVision40 V4.8 software (Carl Zeiss Imaging Solutions).

NCCIT-R cells [5] = test system: NCCIT-R cells
Protocol: as §6, §7, §8
MonA : z-VAD-fmk 1.2 µM : 100 µM
MonA : calpeptine 1.2 µM : 50 µM
MonA : leupeptine 1.2 µM : 100 µM
as §9
(cOmplete Mini EDTA-free)

Cn1cnc(N)c2ncnc1-2 [3-MA, 3-methyladenine, reference compound]
Effect of inhibitor on cytotoxicity of MonA (combinational index) (NCCIT-R cells [1]; 48 h, MTT, CI at Fa = 0.5, ratios in Table S3): most pronounced antagonistic effect

N.N.[Cl][Pt][Cl] [Cisplatin, cis-diamminedichloroplatinum (II), reference compound]
IC50 (RT112; RT112, bladder cancer): 8.99 µM | IC50 (T24; T24, bladder cancer): 9.07 µM | IC50 (TCam-2): 2480 nM | IC50 (NCCIT): 1560 nM | IC50 (2102EP-R): 4930 nM | Markers of apoptosis (cleavage of PARP and caspase-3) (NCCIT-R cells [2]; Western blotting): increase of markers of apoptosis | Expression of LC3B-II (marker of autophagy) (NCCIT-R cells [2]; Western blotting): None of the drugs revealed an up-regulation of LC3B-II | IC50 (NCCIT-R; cisplatin-resistant GCT, 72 h, MTT): 8930 nM | IC50 (2102EP): 644 nM | IC50 (RT4; RT4, bladder cancer): 11.9 µM | IC50 (486p): 20.8 µM

CC/C=C/[C@@H]1CC[C@]2(C[C@H]3CC[C@H]4[C@@H](C(=O)OC(CC)CCCCCCCCCCCCC[C@@H]5O[C@](O)(CCN)[C@H](O)N(CCCN)C5=O)[C@@]5(CCC[C@H](C)O5)NC(=[N+]34)N2)O1 (stereo partly drawn) [MonA, Monanchocidin A]
IC50 (RT112; Homo sapiens, RT-112, RT112, bladder cancer): 0.263 µM | Expression of LC3B-II (marker of autophagy) (prostate cancer cells): up-regulation of LC3B-II | IC50 (PC3): 420 nM | Cytotoxic activity (THP-1): micro- and nanomolar concentrations | IC50 (T24; Homo sapiens, T-24, T24, bladder cancer): 0.413 µM | IC50 (TCam-2; Homo sapiens): 440 nM | Cytotoxic activity (HL-60): micro- and nanomolar concentrations | Cytotoxic activity (HeLa): micro- and nanomolar concentrations | IC50 (NCCIT; Homo sapiens): 210 nM | IC50 (HEK 293T): 670 nM | Lysosomal membrane permeabilization (acridine orange fluorescence) (NCCIT-R cells [3]): disappearance of red fluorescence coupled with increased green fluorescence | IC50 (2102EP-R; Homo sapiens): 306 nM | IC50 (HUVEC): 838 nM | IC50 (MRC-5): 756 nM | Activation of MAPK (p38, ERK, JNK) (NCCIT-R cells [2]; 50 μM, 1 h, Western blotting): Activation of p38 and ERK, but not JNK | Expression of LC3B-II (marker of autophagy) (NCCIT-R cells [2]; Western blotting): up-regulation of LC3B-II | Protein degradation (NCCIT-R cells [2]; short term 30 μM - 50 μM or long-term 0.5 μM - 2 μM): Degradation of different proteins was observed | IC50 (NCCIT-R; Homo sapiens, 48 h of treatment): 500 to 1000 nM | IC50 (NCCIT-R; Homo sapiens, cisplatin-resistant GCT, 72 h, MTT): 253 nM | IC50 (MRC-9): 708 nM | IC50 (DU145): 482 nM | Protein degradation (HEK 293T cells): did not reveal any signs of protein degradation | IC50 (2102EP; Homo sapiens): 341 nM | IC50 (RT4; Homo sapiens, RT-4, RT4, bladder cancer): 0.58 µM | IC50 (LNCaP): 265 nM | IC50 (486p; Homo sapiens): 0.273 µM | Concentration at which release of cathepsin B into the extracellular space occurred (NCCIT-R cells [4]): ≥ 2 µM | Effect of MonA in combination with cisplatin (combinational index) (NCCIT-R cells [1]; 48 h co-treatment, C(MonA) : C(cisplatin) = 1.2 : 10): strong synergistic effects

COc1ccc(C[C@H]2NC[C@H](O)[C@H]2OC(C)=O)cc1 [anisomycin, Anisomycin]
Markers of apoptosis (cleavage of PARP and caspase-3) (NCCIT-R cells [2]; Western blotting): increase of markers of apoptosis | Expression of LC3B-II (marker of autophagy) (NCCIT-R cells [2]; Western blotting): None of the drugs revealed an up-regulation of LC3B-II

CC(=O)O[C@@]12CO[C@@H]1C[C@H](O)[C@@]1(C)C(=O)[C@H](O)C3=C(C)[C@@H](OC(=O)[C@H](O)[C@@H](NC(=O)OC(C)(C)C)c4ccccc4)C[C@@](O)([C@@H](OC(=O)c4ccccc4)[C@H]21)C3(C)C [docetaxel]
Markers of apoptosis (cleavage of PARP and caspase-3) (NCCIT-R cells [2]; Western blotting): increase of markers of apoptosis | Expression of LC3B-II (marker of autophagy) (NCCIT-R cells [2]; Western blotting): None of the drugs revealed an up-regulation of LC3B-II

z-VAD(OMe)-fmk [z-VAD-fmk]
Effect of inhibitor on cytotoxicity of MonA (combinational index) (NCCIT-R cells [5]): moderate antagonistic effect
